Experimental data taken from patent US20190352276A1, “INHIBITORS OF BRUTON'S TYROSINE KINASE” (Joint Stock Company "Biocad", priority 2016, published 2019).

Experiments:
Caco-2 cells = assay: Permeability through the monolayer of Caco-2 cells; assay type: in vitro ADME
Outline: (§1)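 Bidirectional transport measured over 7200 s with 10 μM compound, using an apical buffer at pH 6.5 and a basolateral Hanks/HEPES/glucose buffer at pH 7.4 containing 1% BSA. Monolayers were 21-day Caco-2 cultures verified with Lucifer Yellow. Chamber concentrations quantified chromatographically to derive Papp in both directions and their B-A/A-B efflux ratio.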

[1] = Permeability through the monolayer of Caco-2 cells; assay type: in vitro ADME; details: human, 2 h at 37° C.
Outline: as §1

[2] = Chemical stability in artificial gastric fluid (SGF without enzymes); details: 10 μM in SGF without enzymes, pH=1.4, 37° C.
[3] = human, microsomes
Method: 2) Metabolic Stability in Human Liver Microsomes
The rate of enzymatic decomposition of a compound was detected by incubating the reaction mixture in a dry block heater at 37° C.; the reaction mixture contained 0.5 mg/mL of pooled human liver microsomes (XenoTech, USA, cat# H6010), 10 mM of a drug candidate, 2 mM β-nicotinamide adenine dinucleotide (Carbosynth, UK, cat#NN10871) and 4 mM of magnesium chloride in 0.1M sodium phosphate buffer pH=7.4. The reaction was terminated by adding 100 μL of acetonitrile for each 100 μL of the reaction mixture. After the reaction was terminated, the samples were centrifuged for 10 min at 10000 rpm. The supernatant was chromatographed using Agilent 1200 chromatograph (Agilent, USA). We used gradient elution (1 mL/min flow rate). We plotted a calibration curve of the logarithm of the peak area vs. time. The gradient of the line corresponded to the elimination rate constant k. Based on the constant, determined using the curve, we calculated the drug's half-life (T1/2) and metabolism rate (CLint).

[4] = tested on: Mino (mantle cell lymphoma); assay: Antiproliferative activity, Mino cells (Alamar Blue); assay type: cell-based; details: Homo sapiens, Table 10, 72 h, average of several tests
Outline: (§2)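 IC50 values come from a four-parameter logistic fit of Alamar Blue fluorescence (540 nm excitation, 590 nm emission) read 14-16 h after reagent addition. Before that, the lymphoma lines, about 3*10^4 cells per well in 10% FBS RPMI-1640, were incubated with compound for 72 h at 37 °C, keeping final DMSO below 1%.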

[5] = tested on: Z-138 (mantle cell lymphoma); assay: Antiproliferative activity, Z-138 cells (Alamar Blue); assay type: cell-based; details: Homo sapiens, Table 10, 72 h, average of several tests
Outline: as §2

[6] = tested on: HepG2 cells (hepatocellular carcinoma); assay: General cytotoxicity on HepG2 cells (CC50; therapeutic index CC50 HepG2/IC50 Mino); assay type: cell-based; details: Table 10; therapeutic index
Outline: (§3)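 Alamar Blue viability after 72 h exposure to compounds (final 200 μM–4 μM) gave CC50; HepG2 plated 2*10^4/well in DMEM 24 h beforehand. Therapeutic index expressed as ratio of HepG2 CC50 to Mino antiproliferative IC50.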

[7] = as above; assay type: cell-based; details: human, HepG2 cells (hepatocellular carcinoma); Table 10; 72 hours, Alamar Blue; average of several tests
Outline: as §3

[8] = tested on: DOHH2 (follicular lymphoma); assay: Antiproliferative activity, DOHH2 cells (Alamar Blue); assay type: cell-based; details: Homo sapiens, DOHH-2, Table 10, 72 h, average of several tests
Outline: as §2

[9] = molecular target: T1, recombinant Btk kinase enzyme (Homo sapiens, UniProt Q06187); assay: In vitro inhibition of Btk kinase activity (ADP-Glo); assay type: biochemical; details: Table 8; ADP-Glo; read-out: IC50 kinase BTK
T1 construct: purchased SignalChem B10-10H
Outline: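 IC50 obtained by four-parameter logistic fitting of ADP-Glo luminescence, which reports ADP generated by the kinase. Reaction: recombinant Btk enzyme, 50 μM ATP, 0.5 mg/mL Poly(4:1 Glu,Tyr) peptide, incubated 180 minutes at 37° C. with test compound.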

EGFR = molecular target: T2, EGFR (Homo sapiens, UniProt P00533); assay: In vitro kinase panel: EGFR; assay type: biochemical; details: Table 9 kinase panel
T2 construct: purchased SignalChem E10-11G
Method: The measurements were carried out in a 25 μL reaction volume using a 96-well plate (Corning, #3642). The kinase enzyme and inhibitor were pre-incubated for 10 minutes in the reaction buffer containing 25 mM of MOPS (pH 7.2), 12.5 mM of 0-glycerophosphate, 27 mM of MgCl2, 2 mM of MnCl2, 5 mM of EGTA, 2 mM of EDTA, 0.3 mM of DTT, and 1.2 mg/mL of bovine serum albumin. Staurosporine (Abcam Biochemicals, ab146588) was used as a reference inhibitor and 0.1% DMSO in the reaction buffer—as a negative control. The solution of 0.5 mg/mL peptide substrate and 50 &M ATP in the same buffer were added; the solution was incubated for 180 minutes at 37° C. To detect the amount of ATP taken up during the kinase reaction, the equivalent amount of ADP (from the ADP Glo Detection Kit (Promega, #V9101)) was used according to the protocol. The reaction mixture was equilibrated to room temperature. 25 µL of ADP-Glo Reagent were added into each well; the plate was incubated for 40 minutes. 50 μL of Kinase Detection Reagent were added; the plate was incubated for 30 minutes. The luminescence was measured with multimode plate reader (Tecan Infinite M200Pro, Switzerland). IC50 values were calculated using Magellan 7.2 software (Tecan, Switzerland) approximating experimental points by four-parameter logistic model with the optimization by Levenberg-Marquardt.
For active compounds selected by screening using the target enzyme BTK, the values of IC50 were determined on a kinase panel: EGFR (SignalChem, #E10-11G), ITK (SignalChem, #I13-10G) and TEC (SignalChem, #T03-10G).

T1 sequence (Q06187 whole entry): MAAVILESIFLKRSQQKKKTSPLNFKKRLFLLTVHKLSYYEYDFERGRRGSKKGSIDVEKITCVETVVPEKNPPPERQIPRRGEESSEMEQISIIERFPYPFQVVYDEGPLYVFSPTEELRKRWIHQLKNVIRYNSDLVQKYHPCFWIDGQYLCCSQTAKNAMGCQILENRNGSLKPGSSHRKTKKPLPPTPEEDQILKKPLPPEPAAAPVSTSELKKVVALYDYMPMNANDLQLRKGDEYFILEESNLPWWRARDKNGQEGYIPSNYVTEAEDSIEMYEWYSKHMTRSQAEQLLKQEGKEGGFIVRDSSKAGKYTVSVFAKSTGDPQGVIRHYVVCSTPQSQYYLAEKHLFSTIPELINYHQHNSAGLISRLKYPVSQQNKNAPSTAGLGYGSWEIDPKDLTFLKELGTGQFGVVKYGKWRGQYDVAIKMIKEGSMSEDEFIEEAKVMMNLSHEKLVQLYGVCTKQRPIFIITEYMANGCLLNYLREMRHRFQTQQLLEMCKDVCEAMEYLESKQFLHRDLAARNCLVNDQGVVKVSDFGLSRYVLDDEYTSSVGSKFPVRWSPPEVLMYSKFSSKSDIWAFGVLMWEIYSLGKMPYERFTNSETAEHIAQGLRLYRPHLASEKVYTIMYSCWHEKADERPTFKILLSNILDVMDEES
T2 sequence (P00533 672-1210 limits assumed): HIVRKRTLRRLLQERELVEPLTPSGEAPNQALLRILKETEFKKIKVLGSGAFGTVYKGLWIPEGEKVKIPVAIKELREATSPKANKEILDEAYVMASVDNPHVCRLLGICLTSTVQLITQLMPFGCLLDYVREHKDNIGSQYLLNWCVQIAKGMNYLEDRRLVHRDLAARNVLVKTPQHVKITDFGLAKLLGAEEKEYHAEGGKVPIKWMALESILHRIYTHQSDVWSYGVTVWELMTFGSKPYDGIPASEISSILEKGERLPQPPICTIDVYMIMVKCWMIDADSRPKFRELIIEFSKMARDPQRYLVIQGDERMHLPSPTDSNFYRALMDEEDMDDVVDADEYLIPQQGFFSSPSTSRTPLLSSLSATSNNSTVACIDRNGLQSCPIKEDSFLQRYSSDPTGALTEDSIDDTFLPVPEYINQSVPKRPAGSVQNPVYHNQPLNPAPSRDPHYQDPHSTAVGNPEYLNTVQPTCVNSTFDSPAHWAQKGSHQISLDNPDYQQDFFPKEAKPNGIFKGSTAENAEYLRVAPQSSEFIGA

Row | efflux (Papp B-A/Papp A-B) (Caco-2 cells) | Papp A→B at 2 h, 10 μM [1] | Papp B→A at 2 h, 10 μM [1] | Amount of substance in the sample in % (chemical stability) [2] | Clint (microsome metabolic stability) [3] | IC50 [4] | IC50 [5] | IC50 [8] | IC50 [9] | IC50 (EGFR) | SMILES | CC50 (HepG2)/IC50 (Mino) [6] | CC50 at 72 h [7]
1 | 0.05 | 5.9 ×10⁻⁶ cm/s | 0.3 ×10⁻⁶ cm/s | 96.7% |  |  |  |  |  |  | C=CC(=O)N1CCC[C@@H](n2nc(-c3ccc(C(=O)Nc4cccc(F)n4)cc3)c3cncc(C#N)c32)C1 [BCD-BTK-223, 4-{7-cyano-1-[(3R)-1-(prop-2-enoyl)piperidin-3-yl]-1H-pyrazolo[4,3-c]pyridin-3-yl}-N-(6-fluoropyridin-2-yl)benzamide] |  | 
2 | 0.02 | 11.9 ×10⁻⁶ cm/s | 0.21 ×10⁻⁶ cm/s |  |  |  |  |  |  |  | C=CC(=O)N1CCC[C@@H](n2nc(-c3ccc(C(=O)Nc4cc(C(F)(F)F)ccn4)cc3)c3cncc(Cl)c32)C1 [BCD-BTK-210, (R)-4-(1-(1-acryloylpiperidin-3-yl)-7-chloro-1H-pyrazolo[4,3-c]pyridin-3-yl)-N-(4-(trifluoromethyl)pyridin-2-yl)benzamide] |  | 
3 |  |  |  |  | 27.4 µL/min/mg |  |  |  |  |  | C=CC(=O)N1CCC[C@@H](n2nc(-c3ccc(Oc4ccncc4)cc3)c3c(N)nccc32)C1 [BCD-BTK -241, (R)-1-(1-acryloylpiperidin-3-yl)-4-amine-3-(4-(pyridin-4-yloxy)phenyl)-1H-pyrazolo[4,3-c]pyridine] |  | 
4 | 0.06 | 6.17 ×10⁻⁶ cm/s | 0.37 ×10⁻⁶ cm/s |  |  | 4.3 µM | > 50 µM | > 100 µM |  |  | C=CC(=O)N1CCC[C@@H](n2nc(-c3cnc(C(=O)Nc4cc(C(F)(F)CC)ccn4)nc3)c3cncc(Cl)c32)C1 [BCD-BTK-293, (R)-5-(1-(1-acryloylpiperidin-3-yl)-7-chloro-1H-pyrazolo[4,3-c]pyridin-3-yl)-N-(4-(1,1-difluoropropyl)pyridin-2-yl)pyrimidine-2-carboxamide] | >23.23 | > 100 µM
5 | 0.05 | 17.8 ×10⁻⁶ cm/s | 0.87 ×10⁻⁶ cm/s |  |  | 1.28 µM | 89.4 µM | > 100 µM | 0.0343 µM |  | C=CC(=O)N1CCC[C@@H](n2nc(-c3ccc(C(=O)Nc4cc(C(F)(F)CC)ccn4)cc3)c3cncc(F)c32)C1 [BCD-BTK-214, (R)-4-(1-(1-acryloylpiperidin-3-yl)-7-fluoro-1H-pyrazolo[4,3-c]pyridin-3-yl)-N-(4-(1,1-difluoropropyl)pyridin-2-yl)benzamide] | >77.94 | > 100 µM
6 |  |  |  |  |  | 21.3 µM | 15.5 µM | 11.5 µM | 0.01 µM | 0.0252 µM | C=CC(=O)N1CCC[C@@H](n2nc(-c3ccc(Oc4ccncc4)cc3)c3c(N)nccc32)C1 [BCD-BTK-241, (R)-1-(1-acryloylpiperidin-3-yl)-4-amine-3-(4-(pyridin-4-yloxy)phenyl)-1H-pyrazolo[4,3-c]pyridine] | 2.13 | 45.4 µM
